# In patent publication US20060223782A1, “2-Methylene-19-nor-(23S)-25-dehydro-1alpha-hydroxyvitamin D3-26,23-lactone and 2-methylene-19-nor-(23R)-25-dehydro-1alpha-hydroxyvitamin D3-26,23-lactone” (Wisconsin Alumni Research Foundation, priority 2005, published 2006):
# How the values were obtained:
# [1] = target: T1, full-length recombinant rat vitamin D receptor (Rattus norvegicus, UniProt P13053); experiment: Vitamin D receptor competitive binding with [3H]-1,25-(OH)2-D3; settings: competition with [3H]-1,25-(OH)2-D3; FIG. 1
# T1 construct: Full-length recombinant rat vitamin D receptor was expressed in E. coli; histidine tag (C); made in house; host or cells: E. coli BL21(DE3) Codon Plus RIL
# T1 sequence (P13053 1-423): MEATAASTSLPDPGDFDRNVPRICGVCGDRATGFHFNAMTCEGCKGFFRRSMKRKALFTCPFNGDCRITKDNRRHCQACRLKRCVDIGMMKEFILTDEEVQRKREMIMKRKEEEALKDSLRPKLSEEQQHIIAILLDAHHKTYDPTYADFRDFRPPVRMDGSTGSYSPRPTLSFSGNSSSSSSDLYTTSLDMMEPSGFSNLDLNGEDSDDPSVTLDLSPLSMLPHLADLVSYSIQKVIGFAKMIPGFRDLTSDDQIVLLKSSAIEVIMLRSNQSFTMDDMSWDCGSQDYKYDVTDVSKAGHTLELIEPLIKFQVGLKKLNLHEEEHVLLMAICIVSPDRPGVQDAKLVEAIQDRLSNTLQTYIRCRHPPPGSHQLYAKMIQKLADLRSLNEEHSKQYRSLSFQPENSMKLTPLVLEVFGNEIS
# Procedure: The first system was a nickel affinity resin that utilizes the C-terminal histidine tag on this protein. The protein that was eluted from this resin was further purified using ion exchange chromatography (S-Sepharose Fast Flow). Aliquots of the purified protein were quick frozen in liquid nitrogen and stored at −80° C. until use. For use in binding assays, the protein was diluted in TEDK50 (50 mM Tris, 1.5 mM EDTA, pH 7.4, 5 mM DTT, 150 mM KCl) with 0.1% Chaps detergent. The receptor protein and ligand concentration was optimized such that no more than 20% of the added radiolabeled ligand was bound to the receptor.
# Radiolabeled and unlabeled ligands were added to 100 mcl of the diluted protein at a final ethanol concentration of ≦10%, mixed and incubated overnight on ice to reach binding equilibrium. The following day, 100 mcl of hydroxylapatite slurry (50%) was added to each tube and mixed at 10-minute intervals for 30 minutes. The hydroxylapaptite was collected by centrifugation and then washed three times with Tris-EDTA buffer (50 mM Tris, 1.5 mM EDTA, pH 7.4) containing 0.5% Titron X-100. After the final wash, the pellets were transferred to scintillation vials containing 4 mL of Biosafe II scintillation cocktail, mixed and placed in a scintillation counter. Total binding was determined from the tubes containing only radiolabeled ligand.
# HL-60 cells = experiment: HL-60 differentiation (nitro blue tetrazolium reduction); type: cell-based, human; settings: FIG. 2
# Procedure: The study drugs were dissolved in ethanol and the concentrations determined using UV spectrophotometry. Serial dilutions were prepared so that a range of drug concentrations could be tested without changing the final concentration of ethanol (≦0.2%) present in the cell cultures.
# Human promyelocyiic leukemia (HL60) cells were grown in RPMI-1640 medium containing 10% fetal bovine serum. The cells were incubated at 37° C. in the presence of 5% CO2.
# HL60 cells were plated at 1.2×10^5 cells/mL. Eighteen hours after plating, cells in duplicate were treated with drug. Four days later, the cells were harvested and a nitro blue tetrazolium reduction assay was performed (Collins et al., 1979; J. Exp. Med. 149:969-974). The percentage of differentiated cells was determined by counting a total of 200 cells and recording the number that contained intracellular black-blue formazan deposits. Verification of differentiation to monocytic cells was determined by measuring phagocytic activity (data not shown).
# [2] = test system: 24-hydroxylase (24OHase) gene promoter in ROS 17/2.8 (bone) cells; experiment: In vitro transcription assay, antagonism of 1,25(OH)2D3 (24OHase promoter-luciferase); type: cell-based; settings: combination with 1,25(OH)2D3 in the same well; FIGS. 3-5
# Procedure: Transcription activity was measured in ROS 17/2.8 (bone) cells that were stably transfected with a 24-hydroxylase (24OHase) gene promoter upstream of a luciferase reporter gene (Arbour et al., 1998). Cells were given a range of doses. Sixteen hours after dosing the cells were harvested and luciferase activities were measured using a luminometer. RLU=relative luciferase units.
# Antagonism was tested by adding a combination of 1,25(OH)2D3 and the compound in the same well keeping the final ethanol concentration the same.
# Sprague-Dawley rats [3] = experiment: Bone calcium mobilization (serum calcium); type: in vivo, rat; settings: four consecutive ip doses, even at 2,340 pmol/day, FIG. 6
# Procedure: (§1) Male, weanling Sprague-Dawley rats were placed on Diet 11 (Suda et al. J. Nutr. 100:1049, 1970) (0.47% Ca) diet+vitamins AEK for one week followed by Diet 11 (0.02% Ca)+AEK for 3 weeks. The rats were then switched to a diet containing 0.47% Ca for one week followed by two weeks on a diet containing 0.02% Ca. Dose administration began during the last week on 0.02% calcium diet. Four consecutive ip doses were given approximately 24 hours apart. Twenty-four hours after the last dose, blood was collected from the severed neck and the concentration of serum calcium determined as a measure of bone calcium mobilization. The first 10 cm of the intestine was also collected for intestinal calcium transport analysis using the everted gut sac method. Antagonism was tested by administering a combination of 1,25(OH)2D3 and the compound to the animal simultaneously.
# Sprague-Dawley rats [4] = experiment: Intestinal calcium transport (everted gut sac method); type: in vivo, rat; settings: four consecutive ip doses, FIG. 7
# Procedure: as §1
"binding to the vitamin D receptor relative to 1α,25-dihydroxyvitamin D3 [1]",SMILES,"activity in inducing differentiation of HL-60 cells relative to 1,25-(OH)2D3 (HL-60 cells)","antagonistic activity when administered along with 1α,25-dihydroxyvitamin D3 (transcription) [2]",calcemic activity measured by bone calcium mobilization (Sprague-Dawley rats [3]),intestinal calcium transport (Sprague-Dawley rats [4])
less active,"C=C1C[C@@H](C[C@@H](C)C2CC[C@H]3/C(=C/C=C4C[C@@H](O)C(=C)[C@H](O)C4)CCC[C@]23C)OC1=O (stereo partly drawn) [GC-3, 2-methylene-19-nor-(23R)-25-dehydro-1α-hydroxyvitamin D3-26,23-lactone]","less activity than 1,25-(OH)2D3",shows antagonistic activity,no calcemic activity,retain the ability to elevate intestinal calcium transport
less active,"C=C1C[C@H](C[C@@H](C)C2CC[C@H]3/C(=C/C=C4C[C@@H](O)C(=C)[C@H](O)C4)CCC[C@]23C)OC1=O (stereo partly drawn) [HLV, 2-methylene-19-nor-(23S)-25-dehydro-1α-hydroxyvitamin D3-26,23-lactone]","less activity than 1,25-(OH)2D3",antagonistic activity to an even greater extent,no calcemic activity,retain the ability to elevate intestinal calcium transport
